Measurements reported in PubChem BioAssay (NCI).
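96-well plates; 48 h exposure; 5 concentrations. Endpoints by linear interpolation between flanking doses. Not reached: highest tested concentration assigned. TGI: total growth inhibition.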

How the values were obtained:
Experiment in all cases: NCI anticancer screen, dose series, 48 h
DU-145 prostate = tested on: DU-145 prostate
HCC-2998 colon = tested on: HCC-2998 colon
HL-60(TB) leukemia = tested on: HL-60(TB) leukemia
HS 578T breast = tested on: HS 578T breast
IGROV1 ovarian = tested on: IGROV1 ovarian
M14 melanoma = tested on: M14 melanoma
MCF7 breast = tested on: MCF7 breast
NCI-H460 lung = tested on: NCI-H460 lung
RPMI-8226 leukemia = tested on: RPMI-8226 leukemia
SR leukemia = tested on: SR leukemia

Structure (SMILES) | TGI (DU-145 prostate) [µM] | TGI (HCC-2998 colon) [µM] | TGI (HL-60(TB) leukemia) [µM] | TGI (HS 578T breast) [µM] | TGI (IGROV1 ovarian) [µM] | TGI (M14 melanoma) [µM] | TGI (MCF7 breast) [µM] | TGI (NCI-H460 lung) [µM] | TGI (RPMI-8226 leukemia) [µM] | TGI (SR leukemia) [µM]
CC(C)(CO[C@H]1C[C@H]2CC[C@@]1(C)C2(C)C)[N+](=O)[O-] | 49.2 | 5.19 | 22.5 | 55.9 | > 100 | 27.1 | 49.9 | 38.5 | 38.7 | 42.3
COC(=O)C1=C(CCCCO[Si](C)(C)C(C)(C)C)NC(=O)N2[C@H](CCOCc3ccccc3)CC[C@@H]12 | > 100 | > 100 |  |  |  | > 100 | > 100 | > 100 | > 100 | 
O=C(O)CSC(CC(=O)c1ccc(Cl)cc1)c1ccc(Cl)cc1 (stereo not given) | > 100 |  | 7.45 | > 100 | 54.5 | > 100 | > 100 | > 100 | 61.2 | 7.37
Nc1[nH]c(=O)nc2c1ncn2C1OC(CO)C(O)C1O (stereo not given) | 66.3 | 88.9 | 54.9 | > 100 | > 100 | > 100 | > 100 | > 100 | > 100 | 
CCCCCC[C@H]([C@H](C)O)n1cnc2c(N)ncnc21 | > 100 | > 100 | > 100 | > 100 | > 100 | > 100 | > 100 | > 100 | > 100 | > 100
Cc1c(C)c2c(c(N)c1C#N)C(=O)N(N)C2=O | > 100 | > 100 | > 100 | > 100 | > 100 | > 100 | > 100 | > 100 | > 100 | > 100
C/C(=N\Nc1nc2ccccc2s1)c1ccncn1 | > 66.1 | > 41.9 |  | 26.2 | 4.39 | 14.4 | > 100 | 14.9 | > 26 | > 100
Cc1ccccc1NC(=O)O/N=C(\Cl)C(C)C | 31.5 | 31.5 | > 22 | 58.5 | 27.6 | 12.1 | 22.1 | 34.7 | 4.03 | > 100
COc1cc2c(cc1O)C1Cc3ccc(OC)c(O)c3C[N+]1(C)CC2 (stereo not given) | > 100 | > 100 | > 100 | > 100 | > 100 | > 100 | > 100 | > 100 | > 100 | 
C=C(C)C1CC(=O)C(C)=C(O)C1 (stereo not given) | > 100 | > 100 | > 100 | > 100 | > 100 | > 100 | > 100 | > 100 |  | > 100
COc1cc2c(/C=C3/C(=O)Nc4ccccc43)c(Cl)n(Cc3ccc(Cl)cc3)c2cc1C | 1.07 | 0.432 | 2.33 | 9.01 | 16 | 1.75 | 31.8 | 2.3 | 0.925 | 0.43
N#CCCC(C=O)(CCC#N)CCC#N | > 100 | > 100 | > 100 | > 100 | > 100 | > 100 | > 100 | > 100 |  | > 100
CCOC(=O)c1c(N)sc2c1C(C(=O)OCC)CCCC2 (stereo not given) |  | > 100 | > 100 | > 100 | > 100 | > 100 | > 100 | > 100 | > 100 | > 100
Cc1nc(NC(C)(CO)CO)nc(N/N=C/c2ccc(Cl)cc2)c1C(=O)Nc1ccc(Cl)cc1 | > 100 | > 100 | > 100 | > 100 | > 100 | > 100 | > 100 | > 100 | > 100 | 
CCOP(=O)(/C=C/n1cc(C)c(=O)[nH]c1=O)OCC | > 100 |  | > 100 |  | > 100 | > 100 | > 100 | > 100 | > 100 | 
N#Cc1c(-c2ccc([N+](=O)[O-])cc2)c(C#N)c(=O)n(NS(=O)(=O)c2ccccc2)c1S |  | > 100 |  | 58.5 | 48.3 | > 100 | > 100 | > 100 | 44.6 | 
CSC(SC)=C(C(=O)c1ccc(Cl)cc1)n1c(=O)sc2cc(Br)ccc21 | > 100 | > 100 | > 100 | > 100 | > 100 | > 100 | > 100 | > 100 | > 100 | 
Cn1c(=O)c2c(nc3[nH]c(=O)c(Br)cn32)n(C)c1=O | > 100 | > 100 | > 100 | > 100 | > 100 | > 100 |  | > 100 | > 100 | > 100
COc1ccc(-c2ccc(C(=O)C=P(c3ccccc3)(c3ccccc3)c3ccccc3)cc2)cc1 | 39.4 | 15.2 | 6.77 | 67.6 |  | 31.6 | 30.2 | 20.5 | 5.01 | 73.6
O=C1c2ccccc2-c2nc3ccncc3n21 | > 100 | > 100 | > 100 |  | > 100 |  | > 100 | > 100 | > 100 | > 100
CCC1(O)CC(CCN(Cc2ccccc2)C(=O)OCc2ccccc2)C(OCc2ccccc2)C1O (stereo not given) | 36.3 | 28.9 |  |  | 37.4 | 42.3 | 28.8 | 31.3 |  | 34.9
CC(O)c1nc(C#N)c(N)o1 (stereo not given) | > 100 |  | > 100 | > 100 | > 100 | > 100 | > 100 |  | > 100 | 
COC(=O)[C@]1(c2cc3ccccc3n2S(=O)(=O)c2ccccc2)CC2CN(C(=O)OCc3ccccc3)C1C1OC(C)(C)OC21 (stereo not given in full) | > 100 | > 100 | > 100 | > 100 | > 100 | > 100 | > 100 | > 100 | > 100 | 
